Data from patent publication US20220087960A1, “Oral Pharmaceutical Immediate Release Composition” (Aardvark Therapeutics Inc., priority 2020, published 2022).
Entries after “also recorded” stand apart in the source; their conditions may differ.

Columns and labels:
[1] = test system: diet-induced obesity (DIO) mouse model; assay: 56-day DIO mouse weight loss study comparing DA and DB (Example 3); assay type: in vivo; conditions: DIO mice
Description: The 56-day study determined the behavioral effects of bitter taste receptor agonists denatonium acetate (DA) compared to denatonium benzoate (DB) in a diet-induced obesity (DIO) mouse model. […] The study duration was a 3-5 day acclimation period+[…] study period and 2-3 day testing period after study. […] The mice were C57BL/6NTad mice at least 12 weeks in age and 15 mice per group (low dose DA, higher dose DA, high dose DB and control). […] Metabolic biomarkers (blood glucose, blood insulin, blood HbA1c) were measured at the beginning and end of the study. The DA, DB or distilled water control was administered per ostium gavage (PO) at a volume of 5 mL/kg body weight.

[2] = test system: male Sprague Dawley rats; assay: 24 hour food intake study in rats comparing DA to DB (Example 4); assay type: in vivo, rat; conditions: gavage, DA high dose 23.1 mg/kg
Protocol: This example provides a 24 hour study comparing DA to DB is rats (male Sprague Dawley, Charles River) over a 24 hour period. The […] of 15 rats each were vehicle controlled distilled water gavage QID, DB at a dose of 26.8 mg/kg gavage QID, DA low dose 2.9 mg/kg gavage QD, and DA high dose 23.1 mg/kg gavage QD. Food intake at 2 hr, 4 hr, 6 hr, 8 hr and 24 hr after administration was measured.

[3] = test system: male SD rats; assay: Single oral dose food intake study, 24-hour observational period (Example 6, first in vivo study); parameters: species or system rat
Protocol: This example compares efficacy of DA versus DB in food inhibition and body weight control. As a background, according to Avau et al., Sci. Rep. […] In our first in vivo study, 45 male SD rats (purchased from Envigo at 8-10 weeks of age) were divided into three groups (15 in each group), which were administered a single oral dose of vehicle (distilled water), 26.8 mg/kg of DB, or 23.1 mg/kg of DA respectively, with a 24-hour observational period, to compare the efficacy of DB versus DA in reducing food intake. Table 4. Mean cumulative food intake during 24-h observational period

[4] = test system: male C57BL/6N DIO mice; assay: 56-day BID treatment, food consumption and body weight in DIO mice (Example 6, second in vivo study); parameters: species or system mouse
Protocol: In a second in vivo study, 45 male C57BL/6N DIO mice (purchased from Envigo at 18 weeks of age, fed with high-fat diet) were divided into three groups (15 in each group), which were orally administered vehicle (distilled water), 26.8 mg/kg of DB, or 23.1 mg/kg of DA respectively, twice daily (BID), with a 56-day treatment period to compare the efficacy of DB versus DA in food intake reduction and body weight control. Briefly, once weekly, the food weight for each cage was recorded at 0 hour and then 24 hours later, permitting calculation of food consumption for that 24-hour interval. In addition, starting from Day 0, the mice were weighed three times weekly (every 2-3 days).

[5] = in vivo; conditions: both, Sprague Dawley, rat, po
Protocol: (§1) The drugs were administered to Sprague Dawley rats with a 14-day observational period. Twenty-four Male Sprague Dawley (SD) rats and 24 female SD rats were purchased from Envigo at 8-10 weeks of age. The DA group had four dose levels (120, 360, 1000, and 2000 mg/kg, single administration by oral gavage), 3 rats per sex, 6 animals in total per dose level; and the DB group: four dose levels (120, 360, 1000, and 2000 mg/kg, single administration by oral gavage), 3 rats per sex, 6 animals in total per dose level. The estimated median lethal dose (LD50) was determined by a nonlinear regression [model: Y=100/(1+10^(LogEC50-X)), Hill slope=1.0) to calculate LD50.

[6] = test system: Sprague Dawley rats; assay: in vivo; conditions: rat, po
Protocol: as §1

CC(=O)[O-].CC[N+](CC)(CC(=O)Nc1c(C)cccc1C)Cc1ccccc1 [DA, Denatonium acetate]
body weights at the indicated days (FIG. 1) ([1]; 56 day study, DA 23.1 mg/kg BID PO): lowest average body weights | body weight changes of the 56 day study (FIG. 2) ([1]; DA 23.1 mg/kg BID PO compared with DB 26.8 mg/kg BID): lowest increase in body weight; also recorded: weight loss improvement of higher dose DA over higher dose DB | serum insulin at the end of the 56 day study (FIG. 3) ([1]; DA 23.1 mg/kg BID PO, compared with pre-treatment and vehicle): close to baseline value | cumulative food consumption over 24 hours (FIG. 5) [2]: largest impact | food intake reduction, DA compared with DB ([3]; 23.1 mg/kg DA vs 26.8 mg/kg DB): a greater food intake reduction | Mean cumulative food intake 0-2 h ([3]; single oral dose (DA 23.1 mg/kg, DB 26.8 mg/kg), 0-2 h, N = 15): 4.7 gram | Mean cumulative food intake 0-4 h ([3]; single oral dose (DA 23.1 mg/kg, DB 26.8 mg/kg), 0-4 h, N = 15): 7.3 gram | Mean cumulative food intake 0-6 h ([3]; single oral dose (DA 23.1 mg/kg, DB 26.8 mg/kg), 0-6 h, N = 15): 10.3 gram | Mean cumulative food intake 0-8 h ([3]; single oral dose (DA 23.1 mg/kg, DB 26.8 mg/kg), 0-8 h, N = 15): 12.5 gram | Mean cumulative food intake 0-24 h ([3]; single oral dose (DA 23.1 mg/kg, DB 26.8 mg/kg), 0-24 h, N = 15): 20.2 gram | cumulative food intake as compared with vehicle ([3]; single oral dose, all indicated time intervals): reduced cumulative food intake during all the indicated time intervals as compared with vehicle | body weight gain as compared to vehicle treatment ([4]; DIO mice on high-fat diet, 26.8 mg/kg DB or 23.1 mg/kg DA BID): less body weight gain as compared to vehicle treatment | Mean food consumption per animal for 24-h interval, Day 0 ([4]; DIO mice, BID oral (DA 23.1 mg/kg, DB 26.8 mg/kg), Day 0): 2.2 gram | Mean food consumption per animal for 24-h interval, Day 7 ([4]; DIO mice, BID oral (DA 23.1 mg/kg, DB 26.8 mg/kg), Day 7): 1.7 gram | Mean food consumption per animal for 24-h interval, Day 14 ([4]; DIO mice, BID oral (DA 23.1 mg/kg, DB 26.8 mg/kg), Day 14): 1.9 gram | Mean food consumption per animal for 24-h interval, Day 21 ([4]; DIO mice, BID oral (DA 23.1 mg/kg, DB 26.8 mg/kg), Day 21): 2.3 gram | Mean food consumption per animal for 24-h interval, Day 28 ([4]; DIO mice, BID oral (DA 23.1 mg/kg, DB 26.8 mg/kg), Day 28): 2.0 gram | Mean food consumption per animal for 24-h interval, Day 35 ([4]; DIO mice, BID oral (DA 23.1 mg/kg, DB 26.8 mg/kg), Day 35): 2.4 gram | Mean food consumption per animal for 24-h interval, Day 42 ([4]; DIO mice, BID oral (DA 23.1 mg/kg, DB 26.8 mg/kg), Day 42): 2.0 gram | Mean food consumption per animal for 24-h interval, Day 49 ([4]; DIO mice, BID oral (DA 23.1 mg/kg, DB 26.8 mg/kg), Day 49): 2.3 gram | Mean food consumption per animal for 24-h interval, Day 56 ([4]; DIO mice, BID oral (DA 23.1 mg/kg, DB 26.8 mg/kg), Day 56): 1.7 gram | Mean normalized body weight (% of baseline), study day 0 ([4]; DIO mice, BID oral (DA 23.1 mg/kg, DB 26.8 mg/kg), day 0): 100.0 % of baseline | Mean normalized body weight (% of baseline), study day 4 ([4]; DIO mice, BID oral (DA 23.1 mg/kg, DB 26.8 mg/kg), day 4): 101.1 % of baseline | Mean normalized body weight (% of baseline), study day 7 ([4]; DIO mice, BID oral (DA 23.1 mg/kg, DB 26.8 mg/kg), day 7): 100.6 % of baseline | Mean normalized body weight (% of baseline), study day 9 ([4]; DIO mice, BID oral (DA 23.1 mg/kg, DB 26.8 mg/kg), day 9): 99.5 % of baseline | Mean normalized body weight (% of baseline), study day 11 ([4]; DIO mice, BID oral (DA 23.1 mg/kg, DB 26.8 mg/kg), day 11): 98.8 % of baseline | Mean normalized body weight (% of baseline), study day 14 ([4]; DIO mice, BID oral (DA 23.1 mg/kg, DB 26.8 mg/kg), day 14): 99.6 % of baseline | Mean normalized body weight (% of baseline), study day 16 ([4]; DIO mice, BID oral (DA 23.1 mg/kg, DB 26.8 mg/kg), day 16): 98.5 % of baseline | Mean normalized body weight (% of baseline), study day 18 ([4]; DIO mice, BID oral (DA 23.1 mg/kg, DB 26.8 mg/kg), day 18): 98.4 % of baseline | Mean normalized body weight (% of baseline), study day 21 ([4]; DIO mice, BID oral (DA 23.1 mg/kg, DB 26.8 mg/kg), day 21): 99.9 % of baseline | Mean normalized body weight (% of baseline), study day 23 ([4]; DIO mice, BID oral (DA 23.1 mg/kg, DB 26.8 mg/kg), day 23): 99.9 % of baseline | Mean normalized body weight (% of baseline), study day 25 ([4]; DIO mice, BID oral (DA 23.1 mg/kg, DB 26.8 mg/kg), day 25): 100.0 % of baseline | Mean normalized body weight (% of baseline), study day 28 ([4]; DIO mice, BID oral (DA 23.1 mg/kg, DB 26.8 mg/kg), day 28): 100.0 % of baseline | Mean normalized body weight (% of baseline), study day 30 ([4]; DIO mice, BID oral (DA 23.1 mg/kg, DB 26.8 mg/kg), day 30): 100.0 % of baseline | Mean normalized body weight (% of baseline), study day 32 ([4]; DIO mice, BID oral (DA 23.1 mg/kg, DB 26.8 mg/kg), day 32): 102.0 % of baseline | Mean normalized body weight (% of baseline), study day 34 ([4]; DIO mice, BID oral (DA 23.1 mg/kg, DB 26.8 mg/kg), day 34): 101.9 % of baseline | Mean normalized body weight (% of baseline), study day 36 ([4]; DIO mice, BID oral (DA 23.1 mg/kg, DB 26.8 mg/kg), day 36): 101.5 % of baseline | Mean normalized body weight (% of baseline), study day 39 ([4]; DIO mice, BID oral (DA 23.1 mg/kg, DB 26.8 mg/kg), day 39): 102.6 % of baseline | Mean normalized body weight (% of baseline), study day 41 ([4]; DIO mice, BID oral (DA 23.1 mg/kg, DB 26.8 mg/kg), day 41): 103.1 % of baseline | Mean normalized body weight (% of baseline), study day 46 ([4]; DIO mice, BID oral (DA 23.1 mg/kg, DB 26.8 mg/kg), day 46): 103.9 % of baseline | Mean normalized body weight (% of baseline), study day 49 ([4]; DIO mice, BID oral (DA 23.1 mg/kg, DB 26.8 mg/kg), day 49): 104.7 % of baseline | Mean normalized body weight (% of baseline), study day 51 ([4]; DIO mice, BID oral (DA 23.1 mg/kg, DB 26.8 mg/kg), day 51): 104.9 % of baseline | Mean normalized body weight (% of baseline), study day 53 ([4]; DIO mice, BID oral (DA 23.1 mg/kg, DB 26.8 mg/kg), day 53): 105.2 % of baseline | Mean normalized body weight (% of baseline), study day 56 ([4]; DIO mice, BID oral (DA 23.1 mg/kg, DB 26.8 mg/kg), day 56): 106.7 % of baseline | food consumption compared to vehicle-dosed mice ([4]; DIO mice, BID oral, 56-day treatment): nominally decreased food consumption compared to vehicle-dosed mice | body weight gain, DA compared with DB ([4]; DIO mice, Day 34 to Day 56): body weight gain was less | food consumption, DA compared with DB ([4]; DIO mice, all indicated measurement days except for Day 42): food consumption was less | LD50 at 14 day [5]: 945 mg/kg | MTD at 14 day [5]: 360 mg/kg | Mortality rate ([6]; both, 120 mg/kg, 14 day): 0% | Mortality rate ([6]; both, 360 mg/kg, 14 day): 0% | Mortality rate ([6]; both, 1000 mg/kg, 14 day): 50% | Mortality rate ([6]; both, 2000 mg/kg, 14 day): 100% | Estimated LD50 ([6]; both, 14 day): 945 mg/kg | No. of animals died within 24 h post dosing ([6]; female, 120 mg/kg): 0 | No. of animals died within 24 h post dosing ([6]; female, 360 mg/kg): 0 | No. of animals died within 24 h post dosing ([6]; female, 1000 mg/kg): 3 | No. of animals died within 24 h post dosing ([6]; female, 2000 mg/kg): 3 | No. of animals died within 24 h post dosing ([6]; male, 120 mg/kg): 0 | No. of animals died within 24 h post dosing ([6]; male, 360 mg/kg): 0 | No. of animals died within 24 h post dosing ([6]; male, 1000 mg/kg): 0 | No. of animals died within 24 h post dosing ([6]; male, 2000 mg/kg): 3
